Experiments:
[1] = target: T1, purified human recombinant MTH1 (human MTH1, residues 42-197) (Homo sapiens, UniProt P36639); test: MTH1 enzymatic assay (luminescence-based, PPiLight); type: biochemical
T1 construct: human MTH1, residues 42-197, Uniprot-ID: P36639, expressed in E. coli; made in house; host or cells: E. coli

[2] = Microsomal stability (intrinsic clearance), mouse; type: in vitro ADME; conditions: mouse liver microsomes, 0.5 mg/ml protein, Clint
Excerpt: (§1) A microsomal stability assay is used to measure in vitro clearance (Clint). The assay involves measuring the rate of disappearance of a compound due to its intrinsic attitude to be metabolized (“intrinsic” meaning that the disappearance is not affected by other properties like permeability, binding etc. that play a role when quantifying in vivo clearance). The microsomal stability (intrinsic clearance, Clint) and thus metabolic stability is generally given as μl/min/mg protein. It can be visualized as the volume of solution that 1 mg of microsomes is able to clear of the compound in one minute.
(§2) A Tecan Genesis workstation (RSP 150/8) was used for to perform the microsomal incubations. Analysis was carried out using a Waters ACQUITY UPLC system coupled to an ABSciex API3000 mass spectrometer. Data analysis was performed using Assay Explorer (Symyx).
(§3) Column: Acquity UPLC BEH C18, 2.1×50 mm, 1.7 μm (Waters) Mobile phases: A=0.1% formic acid in water; B=acetonitrile
(§4) Flow rate: 0.750 mL/min; Detection: ESI, MRM; Injection: 10 μL; Column temperature: 50° C.
(§5) • Potassium phosphate buffer: 0.05 M potassium phosphate buffer pH 7.4 containing 1 mM MgCl2 • NADPH (nicotinamide adenine dinucleotide phosphate): 22.5 mg NADPH-Na4 in 1.8 ml potassium phosphate buffer • Acetonitrile: 50 Vol % acetonitrile (1 volume acetonitrile, 1 volume water) • DMSO: 20 Vol % DMSO in water • Stock solution of 20 mg/ml human or mouse liver microsomes (protein)/ml in phosphate buffer • Stock solution of 10 mM compound in 100% DMSO
(§6) Dilution of test compounds was done in 2 steps starting from a 10 mM stock solution of the respective compound in 100% DMSO. First 4 μl stock solution was added to 196 μl of 20 Vol % DMSO. In a second step, 10 μl of the first dilution were added to 1590 μl potassium phosphate buffer to achieve a final concentration of 1.25 μM in the final compound dilution. Thus, the amount of organic solvent in the assay was kept to a minimum (<1%).
(§7) The human or mouse liver microsome (protein) solution to be used in the assay was prepared by mixing 750 μl stock solution (20 mg/ml) and 2250 μl potassium phosphate buffer to a final concentration of 5 mg/ml.
(§8) Incubation was carried out on a 96 deep well incubation plate. 160 μl per well of the final compound dilution were transferred onto the incubation plate. Four samples of each compound dilution were assayed. 20 μl/well liver microsome solution was added to each well and the samples were then preincubated for 5 min at 37° C. and 800 rpm agitation. Two reference compounds (verapamil and dextromethorphan) were used in parallel in every experiment and for each species (human or mouse microsomes) to ensure system performance and for comparison.
(§9) On a separate stop plate, 160 μl acetonitrile were added per well.
(§10) After preincubation, i.e. at time t1=0 minutes, 18 μl samples of incubated compound solution and were transferred and added per well (containing acetonitrile) on the stop plate to prevent a reaction (0 minutes control samples, 4 samples per compound). Equally, 18 μl samples of incubated reference compound solution were transferred and added per well (containing acetonitrile) on the stop plate at time t1=0 minutes and again after 30 minutes (t4), solubility and chemical stability of the compound were checked. […]

[3] = Shake flask solubility measurement; type: physicochemical; conditions: aqueous buffer, thermodynamic from solid, phosphate buffer pH 7.4, 37° C.
Protocol: Compound solubility in aqueous solution is determined by a standard method in the art, the shake flask method. Solubility measurement is performed under equilibrium conditions at pH 7.4. Samples are prepared by dissolving an excess of the test compound in a phosphate buffer (made up of 3,954 g sodium hydrogenphosphate-monohydrate, 6,024 g sodium chloride, 950 ml ultrapure water and adjusted to pH 7.4 with 0.1 M NaOH or 0.1 M HCl). These samples are shaken at 37° C. with 450 rpm (shaker: TiMix control Bühler) for 24 h in total until equilibrium is reached. After 7 hours shaking, the pH value of the sample is controlled and adjusted, if necessary. It is also checked that the sample (test compound) is available in excess. Shortly before the end of 24 h, samples are checked again for pH and precipitate. At the end of 24 h and after separation of the solid by filtration, the concentration of the compound in the filtrate is determined by liquid chromatography using […] (LC-UV).
Sample preparation: Incubation hood: TH 15 Bühler; pH device 766 Calimatic Knick; pH electrode InLab 423 Mettler
Chromatography Conditions:
Column: Chromolith RP18e 100×3 mm
Wavelength range: 190-400 nm • select a suitable evaluation wavelength
Injection volume: Probe 5 μl and 15 μl; Standard 5 μl
Column stove temperature: 37° C.
Eluent A: water/formic acid (999:1; v/v)
Eluent B: acetonitrile/formic acid (999:1; v/v)

[4] = Microsomal stability (intrinsic clearance), human; type: in vitro ADME; conditions: human liver microsomes, 0.5 mg/ml protein, Clint
Excerpt: as §1, §2, §3, §4, §5, §6, §7, §8, §9, §10

[5] = 6 μM 8-oxo-dGTP, Table 1, grouped

Row | SMILES | IC50 [1, 5] | IC50 ([1]; Table 2) | Microsomal stability mouse [2] | solubility at 24 h [3] | Microsomal stability human [4]
1 | CNc1cc(N2CCC(F)(F)C2)nc(N)n1 [Example 3, 6-(3,3-difluoro-pyrrolidin-1-yl)-N^4-methyl-pyrimidine-2,4-diamine] | < 1 nM | < 1 nM | 43 μl/min/mg prot. | > 1000 µg/mL | <10 μl/min/mg prot.
2 | NC(=O)C1CCN(c2cc(NC3CC3)nc(N)n2)C1 (centres unmarked) [Example 5, 1-(2-amino-6-cyclopropylamino-pyrimidin-4-yl)-pyrrolidine-3-carboxylic acid amide-formate] | 1 to 100 nM | 7 nM | 13 μl/min/mg prot. | > 1000 µg/mL | <10 μl/min/mg prot.
3 | CNc1cc(N2CCC(O)C2)nc(N)n1 (centres unmarked) [Example 7, 1-(2-amino-6-methylamino-pyrimidin-4-yl)-pyrrolidin-3-ol-formate] | 1 to 100 nM | 1.3 nM | <10 μl/min/mg prot. | > 1000 µg/mL | <10 μl/min/mg prot.
4 | CNc1cc(N2CCC[C@@H]2CO)nc(N)n1 [Example 8, [(R)-1-(2-amino-6-methylamino-pyrimidin-4-yl)-pyrrolidin-2-yl]-methanol-formate] | 1 to 100 nM | 2 nM | <10 μl/min/mg prot. | > 1000 µg/mL | <10 μl/min/mg prot.

From US20180118721A1, “PYRIMIDINE DERIVATIVES” (Merck Patent GmbH, priority 2015, published 2018)
